In patent US20250346592A1 (Celgene Corporation, priority 2022, published 2025) one finds IC50 data, which are given here for 25 compounds.

Molecules are shown by their SMILES.

The target in this test is hPAD4 enzyme (Homo sapiens (Human), UniProt Q9UM07). The test is described as follows: RFMS2 assay (RapidFire mass spectrometry, TSTGGRQGSHH peptide substrate). Format: biochemical. The settings on record: 35 nM recombinant human PAD4, 500 μM TSTGGRQGSHH peptide, 30 minutes at room temperature; read-out: RFMS 2 IC50. In a few lines: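 IC50 derived from RapidFire LC-MS/MS (positive ESI MRM) of substrate versus product after a 30 min room-temperature reaction stopped with 10% formic acid. Reaction contained 35 nM human PAD4, 500 μM peptide, 2 mM CaCl2, 5 mM DTT at pH 7.4, and compounds diluted 3-fold from 20 μM.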
Sequence of hPAD4 enzyme (Q9UM07 whole entry): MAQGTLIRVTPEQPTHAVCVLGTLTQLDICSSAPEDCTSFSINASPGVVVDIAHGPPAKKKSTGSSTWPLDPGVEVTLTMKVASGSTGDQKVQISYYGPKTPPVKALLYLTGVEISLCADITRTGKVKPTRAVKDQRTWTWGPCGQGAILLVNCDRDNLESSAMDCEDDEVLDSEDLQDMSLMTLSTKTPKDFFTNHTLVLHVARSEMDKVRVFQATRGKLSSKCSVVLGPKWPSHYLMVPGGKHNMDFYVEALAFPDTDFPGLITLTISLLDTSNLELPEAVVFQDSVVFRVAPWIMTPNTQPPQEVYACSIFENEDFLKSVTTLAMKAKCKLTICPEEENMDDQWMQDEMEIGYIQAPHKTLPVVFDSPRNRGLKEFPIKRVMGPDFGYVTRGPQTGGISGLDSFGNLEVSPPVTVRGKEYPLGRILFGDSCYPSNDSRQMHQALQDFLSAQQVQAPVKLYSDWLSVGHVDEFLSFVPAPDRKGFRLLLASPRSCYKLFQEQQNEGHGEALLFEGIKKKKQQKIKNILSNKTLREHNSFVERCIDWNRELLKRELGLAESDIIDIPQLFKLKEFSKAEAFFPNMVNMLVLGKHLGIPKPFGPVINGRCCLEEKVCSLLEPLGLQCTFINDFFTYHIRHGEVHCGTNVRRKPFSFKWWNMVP

Broadly, the IC50 is the concentration needed to halve the response being measured. As to `COc1cccc2cc(-c3nc4cc5c(cc4n3C)CCN(C[C@H](N)CF)C5=O)n(Cc3ncc(C)o3)c12` [Example 125, (S)-6-(2-amino-3-fluoropropyl)-2-(7-methoxy-1-((5-methyloxazol-2-yl)methyl)-1H-indol-2-yl)-1-methyl-1,6,7,8-tetrahydro-5H-imidazo[4,5-g]isoquinolin-5-one], the IC50 fell in the range of 101 to 500 nM.
Then `COc1cccc2cc(-c3nc4cc5c(cc4n3C)CCN(C[C@H](N)CF)C5=O)n(Cc3cccnn3)c12` [Example 126, (S)-6-(2-amino-3-fluoropropyl)-2-(7-methoxy-1-(pyridazin-3-ylmethyl)-1H-indol-2-yl)-1-methyl-1,6,7,8-tetrahydro-5H-imidazo[4,5-g]isoquinolin-5-one], with 101 to 500 nM; and `COc1cccc2cc(-c3nc4cc5c(cc4n3C)CCN(C[C@H](N)CF)C5=O)n(Cc3cnccn3)c12` [Example 128, (S)-6-(2-amino-3-fluoropropyl)-2-(7-methoxy-1-(pyrazin-2-ylmethyl)-1H-indol-2-yl)-1-methyl-1,6,7,8-tetrahydro-5H-imidazo[4,5-g]isoquinolin-5-one], with 101 to 500 nM.
With `COc1cccc2cc(-c3nc4cc5c(cc4n3C)CCN(C[C@H](N)CF)C5=O)n(Cc3nc(C)no3)c12` [Example 129, (S)-6-(2-amino-3-fluoropropyl)-2-(7-methoxy-1-((3-methyl-1,2,4-oxadiazol-5-yl)methyl)-1H-indol-2-yl)-1-methyl-1,6,7,8-tetrahydro-5H-imidazo[4,5-g]isoquinolin-5-one] the figure was 101 to 500 nM; with `COc1cccc2cc(-c3nc4cc5c(cc4n3C)CCN(C[C@H](N)CF)C5=O)n(C[C@H]3CCCO3)c12` [Example 132, 6-((S)-2-amino-3-fluoropropyl)-2-(7-methoxy-1-(((R)-tetrahydrofuran-2-yl)methyl)-1H-indol-2-yl)-1-methyl-1,6,7,8-tetrahydro-5H-imidazo[4,5-g]isoquinolin-5-one], 101 to 500 nM; with `COc1cccc2cc(-c3nc4cc5c(cc4n3C)CCN(C[C@H](N)CF)C5=O)n(C[C@@H]3CCCO3)c12` [Example 133, 6-((S)-2-amino-3-fluoropropyl)-2-(7-methoxy-1-(((S)-tetrahydrofuran-2-yl)methyl)-1H-indol-2-yl)-1-methyl-1,6,7,8-tetrahydro-5H-imidazo[4,5-g]isoquinolin-5-one], 101 to 500 nM.
Regarding `CCn1c(-c2nc3cc4c(cc3n2C)CCN(C[C@H](N)CF)C4=O)cc2ccccc21` [Example 134, (S)-6-(2-amino-3-fluoropropyl)-2-(1-ethyl-1H-indol-2-yl)-1-methyl-1,6,7,8-tetrahydro-5H-imidazo[4,5-g]isoquinolin-5-one], the IC50 was over 1000 nM.
With `COc1cccc2cc(-c3nc4cc5c(cc4n3C)CCN(C[C@H](N)CF)C5=O)n(Cc3cc(Cl)no3)c12` [Example 136, (S)-6-(2-amino-3-fluoropropyl)-2-(1-((3-chloroisoxazol-5-yl)methyl)-7-methoxy-1H-indol-2-yl)-1-methyl-1,6,7,8-tetrahydro-5H-imidazo[4,5-g]isoquinolin-5-one] the figure was 101 to 500 nM.
For the compound `COc1cccc2cc(-c3nc4cc5c(cc4n3C)CCN(C[C@H](N)CF)C5=O)n(Cc3cc(C#N)no3)c12` [Example 137, (S)-5-((2-(6-(2-amino-3-fluoropropyl)-1-methyl-5-oxo-5,6,7,8-tetrahydro-1H-imidazo[4,5-g]isoquinolin-2-yl)-7-methoxy-1H-indol-1-yl)methyl)isoxazole-3-carbonitrile], the IC50 lay in the range of 101 to 500 nM.
With `COc1cccc2cc(-c3nc4cc5c(cc4n3C)CCN(C[C@H](N)CF)C5=O)n(Cc3ccoc3)c12` [Example 138, (S)-6-(2-amino-3-fluoropropyl)-2-(1-(furan-3-ylmethyl)-7-methoxy-1H-indol-2-yl)-1-methyl-1,6,7,8-tetrahydro-5H-imidazo[4,5-g]isoquinolin-5-one], the IC50 was 101 to 500 nM.
Then `COc1cccc2cc(-c3nc4cc5c(cc4n3C)CCN(C[C@H](N)CF)C5=O)n(Cc3oncc3C)c12` [Example 139, (S)-6-(2-amino-3-fluoropropyl)-2-(7-methoxy-1-((4-methylisoxazol-5-yl)methyl)-1H-indol-2-yl)-1-methyl-1,6,7,8-tetrahydro-5H-imidazo[4,5-g]isoquinolin-5-one], with 101 to 500 nM; and `COc1cccc2cc(-c3nc4cc5c(cc4n3C)CCN(C[C@H](N)CF)C5=O)n(Cc3ccc(C#N)o3)c12` [Example 140, (S)-5-((2-(6-(2-amino-3-fluoropropyl)-1-methyl-5-oxo-5,6,7,8-tetrahydro-1H-imidazo[4,5-g]isoquinolin-2-yl)-7-methoxy-1H-indol-1-yl)methyl)furan-2-carbonitrile], with 11 to 100 nM; and `COc1cccc2cc(-c3nc4cc5c(cc4n3C)CCN(C[C@H](N)CF)C5=O)n(Cc3ccco3)c12` [Example 141, (S)-6-(2-amino-3-fluoropropyl)-2-(1-(furan-2-ylmethyl)-7-methoxy-1H-indol-2-yl)-1-methyl-1,6,7,8-tetrahydro-5H-imidazo[4,5-g]isoquinolin-5-one], with 101 to 500 nM.
With `COc1cccc2cc(-c3nc4cc5c(cc4n3C)CCN(C[C@H](N)CF)C5=O)n(Cc3ocnc3C)c12` [Example 142, (S)-6-(2-amino-3-fluoropropyl)-2-(7-methoxy-1-((4-methyloxazol-5-yl)methyl)-1H-indol-2-yl)-1-methyl-1,6,7,8-tetrahydro-5H-imidazo[4,5-g]isoquinolin-5-one] the figure was 101 to 500 nM.
With `COc1cccc2cc(-c3nc4cc5c(cc4n3C)CCN(C[C@H](N)CF)C5=O)n(Cc3ccc(C)o3)c12` [Example 143, (S)-6-(2-amino-3-fluoropropyl)-2-(7-methoxy-1-((5-methylfuran-2-yl)methyl)-1H-indol-2-yl)-1-methyl-1,6,7,8-tetrahydro-5H-imidazo[4,5-g]isoquinolin-5-one] the figure was 101 to 500 nM; with `COc1cccc2cc(-c3nc4cc5c(cc4n3C)CCN(C[C@H](N)CF)C5=O)n(Cc3ccnnc3)c12` [Example 144, (S)-6-(2-amino-3-fluoropropyl)-2-(7-methoxy-1-(pyridazin-4-ylmethyl)-1H-indol-2-yl)-1-methyl-1,6,7,8-tetrahydro-5H-imidazo[4,5-g]isoquinolin-5-one], 101 to 500 nM; with `COc1cccc2cc(-c3nc4cc5c(cc4n3C)CCN(C[C@H](N)CF)C5=O)n(Cc3coc(C)n3)c12` [Example 145, (S)-6-(2-amino-3-fluoropropyl)-2-(7-methoxy-1-((2-methyloxazol-4-yl)methyl)-1H-indol-2-yl)-1-methyl-1,6,7,8-tetrahydro-5H-imidazo[4,5-g]isoquinolin-5-one], 101 to 500 nM.
In the case of `COC1(Cn2c(-c3nc4cc5c(cc4n3C)CCN(C[C@H](N)CF)C5=O)cc3ccccc32)CC1` [Example 147, (S)-6-(2-amino-3-fluoropropyl)-2-(1-((1-methoxycyclopropyl)methyl)-1H-indol-2-yl)-1-methyl-1,6,7,8-tetrahydro-5H-imidazo[4,5-g]isoquinolin-5-one], the IC50 was over 1000 nM.
With `Cn1c(-c2cc3cccc(C#N)c3n2Cc2ccno2)nc2cc3c(cc21)CCN(C[C@H](N)CF)C3=O` [Example 148, (S)-2-(6-(2-amino-3-fluoropropyl)-1-methyl-5-oxo-5,6,7,8-tetrahydro-1H-imidazo[4,5-g]isoquinolin-2-yl)-1-(isoxazol-5-ylmethyl)-1H-indole-7-carbonitrile] the figure was 501 to 1000 nM; with `Cn1c(-c2cc3cccc(OCC4COC4)c3n2CC2CC2)nc2cc3c(cc21)CCN(C[C@H](N)CF)C3=O` [Example 149, (S)-6-(2-amino-3-fluoropropyl)-2-(1-(cyclopropylmethyl)-7-(oxetan-3-ylmethoxy)-1H-indol-2-yl)-1-methyl-1,6,7,8-tetrahydro-5H-imidazo[4,5-g]isoquinolin-5-one], 101 to 500 nM; with `Cn1c(-c2cc3cccc(OCC4CNC(=O)C4)c3n2CC2CC2)nc2cc3c(cc21)CCN(C[C@H](N)CF)C3=O` (stereo partly shown) [Example 151], 11 to 100 nM.
In the case of `Cn1c(-c2cc3cccc(OCC4CNC4)c3n2CC2CC2)nc2cc3c(cc21)CCN(C[C@H](N)CF)C3=O` [Example 152, (S)-6-(2-amino-3-fluoropropyl)-2-(7-(azetidin-3-ylmethoxy)-1-(cyclopropylmethyl)-1H-indol-2-yl)-1-methyl-1,6,7,8-tetrahydro-5H-imidazo[4,5-g]isoquinolin-5-one], the IC50 lay in the range of 101 to 500 nM.
With `COCCOc1cccc2cc(-c3nc4cc5c(cc4n3C)CCN(C[C@H](N)CF)C5=O)n(CC3CC3)c12` [Example 153, (S)-6-(2-amino-3-fluoropropyl)-2-(1-(cyclopropyl-methyl)-7-(2-methoxyethoxy)-1H-indol-2-yl)-1-methyl-1,6,7,8-tetrahydro-5H-imidazo[4,5-g] isoquinolin-5-one] the figure was 101 to 500 nM.
With `CN(C)CCOc1cccc2cc(-c3nc4cc5c(cc4n3C)CCN(C[C@H](N)CF)C5=O)n(CC3CC3)c12` [Example 154, (S)-6-(2-amino-3-fluoropropyl)-2-(1-(cyclopropyl-methyl)-7-(2-(dimethylamino)ethoxy)-1H-indol-2-yl)-1-methyl-1,6,7,8-tetrahydro-5H-imidazo[4,5-g] isoquinolin-5-one] the figure was over 1000 nM; with `Cn1c(-c2cc3cccc(OCCn4cccn4)c3n2CC2CC2)nc2cc3c(cc21)CCN(C[C@H](N)CF)C3=O` [Example 155, (S)-2-(7-(2-(1H-pyrazol-1-yl)ethoxy)-1-(cyclopropyl-methyl)-1H-indol-2-yl)-6-(2-amino-3-fluoropropyl)-1-methyl-1,6,7,8-tetrahydro-5H-imidazo[4,5-g] isoquinolin-5-one], 11 to 100 nM.
